# Marks after values point to notes of the source that are not given here.
# Tests used:
# GABAARs = assay: Whole-cell voltage-clamped recordings from hippocampal DGCs in slices (Itonic, mIPSCs); format: cell-based, rats; conditions: for GABAergic Itonic: basal Itonic 20 pA
# From the text: 2) Whole-Cell Patch-Clamp Recordings from Brain Slices. Transverse slices (400 lm) of dorsal hippocampus were obtained from wt and TG-SwDI mice (male, 20 months old) using a vibratome (VT 100; Technical Products International). Slices were perfused continuously with artificial CSF (ACSF) composed of the following (in mM): 125 NaCl, 2.5 KCl, 2 CaCl2, 2 MgCl2, 26 NaHCO3, and 10 D-glucose. The ACSF was bubbled continuously with 95% O2/5% CO2 to ensure adequate oxygenation of slices and a pH of 7.4 and kept at 34±0.5° C. for perfusion. TTX (0.5 μM), APV (40 μM), CNQX (10 μM), and CGP54626 (1 μM, GABABR antagonist) were added to ACSF to pharmacologically isolate GABAAR-mediated mIPSCs. Patch electrodes were filled with internal solution containing the following (in mM): 137 CsCl, 2 MgCl2, 1 CaCl2, 11 EGTA, 10 HEPES, and 3 ATP, pH adjusted to 7.30 with CsOH. Recordings targeted dentate gyms granule cells (DGCs) of hippocampal slices. Voltage-clamp whole-cell recording was performed using a patch clamp amplifier 3) EPM: All animals were tested anxiety levels on EPM. Animals were placed on the central area of the maze, tested for 5 min and video recorded. The following measures were scored: number of entries into open arms, closed arms, or center platform and time spent in each of these areas. Data were reported as % of number of entries in arms, % of time spent in different entries, and number of total entries.
# To evaluate whether DHM-Piperidine Complex (D-P) can still potentiate GABAARs, whole-cell voltage-clamped recordings from hippocampal DGCs in slices were performed to test D-P and compared with DHM effects on GABAergic tonic current (Itonic) and miniature inhibitory postsynaptic currents (mIPSCs). […] Compared with DHM enhancing GABAergic Itonic from 20 pA (basal Itonic)→28 pA→31 pA→52 pA→55 pA, D-P enhancing GABAergic Itonic from 20 pA (basal Itonic)→35 pA→42 pA →65 pA→70 pA (Table 1).
# [1] = Anecdotal test of effects on sleep
# Protocol: We did an Anecdotal Test of the Effects of DHM on Sleep. […] They were given combination-formula (Comb-D, 1 serving size), DHM (250 mg), or melatonin (10 mg). After a week, we started collecting their reported sleep duration.
# gephyrin = conditions: previously reported (Liang et al., 2014); cited from earlier work
# mice = assay: Elevated plus maze (EPM), anxiolytic effect of combination form; format: in vivo; conditions: 45 min after oral administration, comb 0.5, 1, 2 serving size, diazepam 2 mg/kg
# Protocol: Alternatively, the elevated plus maze for mice can consist of two opposing open (24×8 cm) and two enclosed arms (24×8×25 cm) connected by a central platform forming the shape of a plus sign. The dimensions of the central field which connects the open and closed arms are 8×8 cm. The plus maze was elevated to a height of 50 cm. Each mouse was immediately placed in the central square of the apparatus with the head facing one of the closed arms. Mice behavior during 5 min was observed and recorded by means of a video camera (Canon Digital, Japan), which was fixed to the wall above the elevated plus maze. In this test, the following parameters were detected and calculated: the number of entries (open arm entries and closed arm entries), % of open arm entries, and % of time spent in open arms.
# Anxiolytic effect evaluation of combination form (comb). A characteristic of the anxiolytic effects of comb (0.5, 1, and 2 serving size) was evaluated by elevated plus maze (EPM) tests (Table 3; FIG. 6). The EPM is considered an etiologically valid assessment of anxiolytic/anxiety in rodents because it uses natural stimuli (fear of a novel, brightly lit open space, and fear of balancing on a relatively narrow, raised platform) to determine anxiety-like behavior in animals. Anxiolytics are known to exert their pharmacological action by causing an increase in GABAergic neurotransmission in the brain.
# Statistical analysis: one-way ANOVA, followed by Holm-Sidak post hoc comparison. […] Data were expressed as the means ±SEM, (n=7/group) percentage of open arm entries or of time spent on open arms in mice given a 5-min test, 45 min after oral administration of comb (0.5, 1, 2 serving size), or vehicle.
structure (smiles),measurement,setting,value
"O=C1c2c(O)cc(O)cc2O[C@H](c2cc(O)c(O)c(O)c2)[C@H]1O [DHM, dihydromyricetin, reference compound]","Itonic, percent in brackets (increase over basal)",GABAARs; 0.1 μM,(40%)*
same,mIPSCs (area potentiated),GABAARs; 0.1 μM,5.0%
same,GABAergic Itonic,GABAARs; 0.1 μM,28 pA
same,"Itonic, percent in brackets (increase over basal)",GABAARs; 0.3 μM,(55%)*
same,mIPSCs (area potentiated),GABAARs; 0.3 μM,13.3%*
same,GABAergic Itonic,GABAARs; 0.3 μM,31 pA
same,"Itonic, percent in brackets (increase over basal)",GABAARs; 1 μM,(160%)*
same,mIPSCs (area potentiated),GABAARs; 1 μM,58.3%*
same,GABAergic Itonic,GABAARs; 1 μM,52 pA
same,"Itonic, percent in brackets (increase over basal)",GABAARs; 10 μM,(175%)*
same,mIPSCs (area potentiated),GABAARs; 10 μM,53.3%*
same,GABAergic Itonic,GABAARs; 10 μM,55 pA
same,sleep duration (average),[1]; 250 mg oral daily,5.5±0.65
same,start of improvement of sleep,[1]; 250 mg oral daily,1 to 7 days
same,dependence after finishing three-month test,[1],without dependence
same,GABAergic inhibitory transmission / gephyrin in TG mouse models,gephyrin,restores impaired GABAergic inhibitory transmission
CN1C(=O)CN=C(c2ccccc2)c2cc(Cl)ccc21 [diazepam],number of closed arm entries,mice,little effect
same,total number of arm entries,mice,significantly increased
same,percentage of open arm entries,mice; p<0.01,significantly elevated
COc1ccc2[nH]cc(CCNC(C)=O)c2c1 [melatonin],complaints (discomfort),[1]; 10 mg oral daily,"dizziness on the second day, loss of energy, and other feelings of discomfort"
same,time to show improvement in sleep,[1]; 10 mg oral daily,took a month
same,sleep duration (average),"[1]; 10 mg oral daily, in 40% attendees",4.3 ± 0.9 h
same,dependence after finishing three-month test,[1],suffered withdrawal from the test

# — patent US12194021B2, “Modified herbal compositions for neuromodulation” (University of Southern California, priority 2021, dated 2025)
